Results as given in US9896445B2, “Heterocyclic inhibitors of ERK1 and ERK2 and their use in the treatment of cancer” (Asana Biosciences, LLC, priority 2015, dated 2018).

What was measured:
[1] = target: T1, ERK1 (Homo sapiens, UniProt P27361); assay: ERK1 HTRF (biochemical) assay
T1 construct: purchased Jubilant Biosys
Description: ERK1 and ERK2 HTRF (Biochemical) Assays
These assays employed a homogeneous time resolved fluorescence (HTRF) technique. […] The plate was incubated at room temperature for 60 min with shaking. […] The IC50 values (half maximal inhibitory concentration values) were subsequently determined using a sigmoidal dose-response curve (variable slope) in GraphPad Prism® 5 software.

[2] = target: T2, ERK2 (Homo sapiens, UniProt P28482); assay: ERK2 HTRF (biochemical) assay
T2 construct: purchased Jubilant Biosys
Procedure, shortened: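 Compounds were tested as half-log dilutions from 0.0005 to 10 uM in Tris pH 7.5/MgCl2 buffer, with a substrate mix of 1 uM biotin-MBP peptide and 24 uM ATP and an enzyme mix of 25 nM ERK2. Reaction ran 60 min at room temperature. Phospho-MBP was detected by HTRF (Eu-anti-phospho-MBP/SA-APC, 665/620 nm), and IC50 was fitted with a variable-slope sigmoidal curve.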

T2 sequence (P28482 whole entry): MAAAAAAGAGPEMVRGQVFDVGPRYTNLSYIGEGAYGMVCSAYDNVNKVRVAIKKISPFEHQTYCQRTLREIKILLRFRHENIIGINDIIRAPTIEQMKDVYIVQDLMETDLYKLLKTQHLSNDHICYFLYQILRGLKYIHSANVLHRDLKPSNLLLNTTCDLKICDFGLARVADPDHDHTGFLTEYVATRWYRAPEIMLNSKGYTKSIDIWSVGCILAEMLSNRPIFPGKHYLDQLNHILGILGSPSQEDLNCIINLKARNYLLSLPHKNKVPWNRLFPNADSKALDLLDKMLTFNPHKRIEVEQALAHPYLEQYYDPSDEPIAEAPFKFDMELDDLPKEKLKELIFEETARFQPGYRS
T1 sequence (P27361 whole entry): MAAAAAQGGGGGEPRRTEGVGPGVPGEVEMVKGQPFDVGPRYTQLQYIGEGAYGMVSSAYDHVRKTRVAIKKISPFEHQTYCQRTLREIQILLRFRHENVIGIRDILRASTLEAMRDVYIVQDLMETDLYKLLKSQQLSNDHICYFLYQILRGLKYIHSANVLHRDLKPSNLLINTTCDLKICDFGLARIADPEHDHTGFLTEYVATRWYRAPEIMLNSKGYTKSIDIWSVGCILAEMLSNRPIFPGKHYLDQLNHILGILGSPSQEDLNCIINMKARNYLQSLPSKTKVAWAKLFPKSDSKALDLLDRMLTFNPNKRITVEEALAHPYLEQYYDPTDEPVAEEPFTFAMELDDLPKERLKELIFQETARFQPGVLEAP

O=C(Nc1cnn(-c2ccnc(NC3CC3)n2)c1)NC(CO)c1cccc(Cl)c1 (stereo not shown) [Compound 16, 1-(1-(3-chlorophenyl)-2-hydroxyethyl)-3-(1-(2-(cyclopropyl-amino)pyrimidin-4-yl)-1H-pyrazol-4-yl)urea]
IC50 ([1]; HTRF): 100 to 500 nM
IC50 ([2]; HTRF): 50 to 100 nM

Cc1cnc(NC2CCNC2)nc1-n1ccc(C(=O)N[C@H](CO)c2cccc(Cl)c2)c1 (stereo partly drawn) [Compound 174, N-((S)-1-(3-chlorophenyl)-2-hydroxyethyl)-1-(5-methyl-2-(pyrrolidin-3-ylamino)pyrimidin-4-yl)-1H-pyrrole-3-carboxamide]
IC50 ([1]; HTRF): < 50 nM
IC50 ([2]; HTRF): ≤ 50 nM

Cc1cnc(Nc2cccnc2)nc1-n1cc(NC(=O)N[C@H](CO)c2cccc(Cl)c2)cn1 [Compound 23, (S)-1-(1-(3-chlorophenyl)-2-hydroxyethyl)-3-(1-(5-methyl-2-(pyridin-3-yl-amino)pyrimidin-4-yl)-1H-pyrazol-4-yl)urea]
IC50 ([1]; HTRF): < 50 nM
IC50 ([2]; HTRF): ≤ 50 nM

Cc1cnc(Nc2ccc3c(c2)OCCC3)nc1-n1ccc(C(=O)NC(CO)c2ccccc2)c1 (stereo not shown) [Compound 186, 1-(2-(chroman-7-ylamino)-5-methyl-pyrimidin-4-yl)-N-(2-hydroxy-1-phenylethyl)-1H-pyrrole-3-carboxamide]
IC50 ([1]; HTRF): < 50 nM
IC50 ([2]; HTRF): ≤ 50 nM

Cc1cnc(NC2CCOCC2)nc1-n1cnc(C(=O)NC(CO)c2ccc(Cl)s2)c1 (stereo not shown) [Example 257, N-(1-(5-chlorothiophen-2-yl)-2-hydroxy-ethyl)-1-(5-methyl-2-((tetrahydro-2H-pyran-4-yl)amino)-pyrimidin-4-yl)-1H-imidazole-4-carboxamide]
IC50 ([1]; HTRF): < 50 nM
IC50 ([2]; HTRF): ≤ 50 nM

Cc1cnc(N[C@H]2CCOC2)nc1-n1cnc(C(=O)NCc2cccc(C(F)(F)F)c2)c1 [Example 311, (S)-1-(5-methyl-2-((tetrahydrofuran-3-yl)amino)-pyrimidin-4-yl)-N-(3-(trifluoro-methyl)benzyl)-1H-imidazole-4-carboxamide]
IC50 ([1]; HTRF biochemical assay): 50 to 100 nM
IC50 ([2]; HTRF biochemical assay): ≤ 50 nM

Cc1cnc(NC2CCOCC2)nc1-n1cnc(C(=O)NCc2cccc(Cl)c2CN)c1 [Example 285, N-(2-(aminomethyl)-3-chlorobenzyl)-1-(5-methyl-2-((tetrahydro-2H-pyran-4-yl)amino)-pyrimidin-4-yl)-1H-imidazole-4-carboxamide]
IC50 ([1]; HTRF): < 50 nM
IC50 ([2]; HTRF): ≤ 50 nM

Cc1cnc(Nc2ccc3c(c2)OCO3)nc1-n1cc(C(=O)NC(CO)c2cccc(Cl)c2)cn1 (stereo not shown) [Compound 41, 1-(2-(benzo[d][1,3]dioxol-5-ylamino)-5-methylpyrimidin-4-yl)-N-(1-(3-chloro-phenyl)-2-hydroxy-ethyl)-1H-pyrazole-4-carboxamide]
IC50 ([1]; HTRF): 100 to 500 nM
IC50 ([2]; HTRF): ≤ 50 nM

Cc1ccc(C(CO)NC(=O)c2cn(-c3nc(NC4CCOCC4)ncc3C)cn2)s1 (stereo not shown) [Example 261, N-(2-hydroxy-1-(5-methylthiophen-2-yl)ethyl)-1-(5-methyl-2-((tetrahydro-2H-pyran-4-yl)amino)-pyrimidin-4-yl)-1H-imidazole-4-carboxamide]
IC50 ([1]; HTRF): < 50 nM
IC50 ([2]; HTRF): ≤ 50 nM

Cc1cnc(N[C@H]2CCOC2)nc1-n1cnc(C(=O)NCc2cccc(Cl)c2CO)c1 [Example 270]
IC50 ([1]; HTRF): < 50 nM
IC50 ([2]; HTRF): ≤ 50 nM

Cc1cnc(Nc2ccc(F)cc2)cc1-n1cnc(C(=O)NC(CN)c2ccccc2)c1 (single isomer, unassigned) [Compound 228, N-(2-amino-1-phenylethyl)-1-(2-((4-fluorophenyl)-amino)-5-methyl-pyridin-4-yl)-1H-imidazole-4-carboxamide]
IC50 ([1]; HTRF): 100 to 500 nM
IC50 ([2]; HTRF): 100 to 500 nM

O=C(NC(CO)c1cccc(Cl)c1)c1ccn(-c2ccnc(Nc3ccc(F)cc3Cl)n2)c1 (stereo not shown) [Compound 111, 1-(2-((2-chloro-4-fluorophenyl)amino)pyrimidin-4-yl)-N-(1-(3-chlorophenyl)-2-hydroxyethyl)-1H-pyrrole-3-carboxamide]
IC50 ([1]; HTRF): 50 to 100 nM
IC50 ([2]; HTRF): ≤ 50 nM

Cc1cnc(Nc2ccc3c(c2)OCO3)nc1-n1ccc(C(=O)NC(CO)c2ccc(F)cc2)c1 (stereo not shown) [Compound 172, 1-(2-(benzo[d][1,3]dioxol-5-ylamino)-5-methylpyrimidin-4-yl)-N-(1-(4-fluorophenyl)-2-hydroxyethyl)-1H-pyrrole-3-carboxamide]
IC50 ([1]; HTRF): < 50 nM
IC50 ([2]; HTRF): ≤ 50 nM

O=C(NC(CO)c1cccc(Cl)c1)c1ccn(-c2ccnc(Nc3ccccc3)c2)c1 (stereo not shown) [Compound 46, N-(1-(3-chloro-phenyl)-2-hydroxy-ethyl)-1-(2-(phenyl-amino)pyridin-4-yl)-1H-pyrrole-3-carboxamide]
IC50 ([1]; HTRF): < 50 nM
IC50 ([2]; HTRF): ≤ 50 nM

Cc1cnc(NC2CCOCC2)nc1-n1cnc(C(=O)NCc2cccc(Cl)c2CCO)c1 [Example 334, N-(3-chloro-2-hydroxyethylbenzyl)-1-(5-methyl-2-((tetrahydro-2H-pyran-4-yl)amino)-pyrimidin-4-yl)-1H-imidazole-4-carboxamide]
IC50 ([1]; HTRF biochemical assay): < 50 nM
IC50 ([2]; HTRF biochemical assay): ≤ 50 nM

Cc1cnc(Nc2ccc3c(c2)OCO3)nc1-n1ccc(C(=O)NC(CO)c2cccc(Cl)c2)c1 (stereo not shown) [Compound 42, 1-(2-(benzo[d][1,3]dioxol-5-ylamino)-5-methylpyrimidin-4-yl)-N-(1-(3-chloro-phenyl)-2-hydroxy-ethyl)-1H-pyrrole-3-carboxamide]
IC50 ([1]; HTRF): < 50 nM
IC50 ([2]; HTRF): ≤ 50 nM

Cc1cnc(Nc2ccc(F)c(C(=O)N(C)C)c2)nc1-n1ccc(C(=O)NC(CO)c2cccc(Cl)c2)c1 (stereo not shown) [Compound 194, N-(1-(3-chloro-phenyl)-2-hydroxyethyl)-1-(2-((3-(dimethyl-carbamoyl)-4-fluorophenyl)amino)-5-methyl-pyrimidin-4-yl)-1H-pyrrole-3-carboxamide]
IC50 ([1]; HTRF): < 50 nM
IC50 ([2]; HTRF): ≤ 50 nM

O=C(NC(CO)c1ccccc1)c1ccn(-c2ccnc(NC3CCOC3)c2)c1 (stereo not shown) [Compound 189, N-(2-hydroxy-1-phenylethyl)-1-(2-((tetrahydrofuran-3-yl)amino)pyridin-4-yl)-1H-pyrrole-3-carboxamide]
IC50 ([1]; HTRF): 100 to 500 nM
IC50 ([2]; HTRF): 500 to 2500 nM

O=C(NC(CO)c1cccc(Cl)c1)c1ccn(-c2ccnc(Nc3ccc4c(c3)OC(F)(F)O4)n2)c1 (stereo not shown) [Compound 176, N-(1-(3-chloro-phenyl)-2-hydroxyethyl)-1-(2-((2,2-difluoro-benzo[d][1,3]dioxol-5-yl)amino)-pyrimidin-4-yl)-1H-pyrrole-3-carboxamide]
IC50 ([1]; HTRF): < 50 nM
IC50 ([2]; HTRF): ≤ 50 nM

CNC(=O)c1ccc(Nc2ncc(C)c(-n3ccc(C(=O)NC(CO)c4cccc(Cl)c4)c3)n2)cc1 (stereo not shown) [Compound 196, N-(1-(3-chloro-phenyl)-2-hydroxy-ethyl)-1-(5-methyl-2-((4-(methyl-carbamoyl)phenyl)amino)pyrimidin-4-yl)-1H-pyrrole-3-carboxamide]
IC50 ([1]; HTRF): < 50 nM
IC50 ([2]; HTRF): ≤ 50 nM

Cc1cnc(NC2CCOC2)nc1-n1ccc(C(=O)N[C@H](CO)c2cccc(Cl)c2)c1 (stereo partly drawn) [Compound 151, N-((S)-1-(3-chlorophenyl)-2-hydroxyethyl)-1-(5-methyl-2-((tetrahydrofuran-3-yl)amino)pyrimidin-4-yl)-1H-pyrrole-3-carboxamide]
IC50 ([1]; HTRF): < 50 nM
IC50 ([2]; HTRF): ≤ 50 nM

O=C(Nc1cnn(-c2ccnc(Nc3ccccc3Cl)n2)c1)N[C@H](CO)c1ccccc1 [Compound 7, (S)-1-(1-(2-((2-chlorophenyl)amino)pyrimidin-4-yl)-1H-pyrazol-4-yl)-3-(2-hydroxy-1-phenylethyl)urea]
IC50 ([1]; HTRF): 50 to 100 nM
IC50 ([2]; HTRF): 50 to 100 nM

CC[C@@H](CO)Nc1ncc(C)c(-n2ccc(C(=O)NC(CO)c3ccccc3)c2)n1 (stereo partly drawn) [Compound 75, N-(2-hydroxy-1-phenylethyl)-1-(2-(((S)-1-hydroxy-butan-2-yl)amino)-5-methylpyrimidin-4-yl)-1H-pyrrole-3-carboxamide]
IC50 ([1]; HTRF): < 50 nM
IC50 ([2]; HTRF): ≤ 50 nM

Cc1cnc(NC2CCOc3ccccc32)nc1-n1cnc(C(=O)N[C@H](CO)c2cccc(Cl)c2)c1 (stereo partly drawn) [Compound 247, N-((S)-1-(3-chlorophenyl)-2-hydroxyethyl)-1-(2-(chroman-4-ylamino)-5-methylpyrimidin-4-yl)-1H-imidazole-4-carboxamide]
IC50 ([1]; HTRF): < 50 nM
IC50 ([2]; HTRF): ≤ 50 nM

O=C(NC(CO)c1ccccc1)c1ccn(-c2nc(Nc3ccc4c(c3)OCO4)ncc2F)c1 (stereo not shown) [Compound 66, 1-(2-(benzo[d][1,3]dioxol-5-ylamino)-5-fluoropyrimidin-4-yl)-N-(2-hydroxy-1-phenylethyl)-1H-pyrrole-3-carboxamide]
IC50 ([1]; HTRF): < 50 nM
IC50 ([2]; HTRF): ≤ 50 nM

Cc1cnc(NC2CCCCC2)nc1-n1ccc(C(=O)NC(CO)c2cccc(Cl)c2)c1 (stereo not shown) [Compound 195, N-(1-(3-chlorophenyl)-2-hydroxyethyl)-1-(2-(cyclohexylamino)-5-methylpyrimidin-4-yl)-1H-pyrrole-3-carboxamide]
IC50 ([1]; HTRF): < 50 nM
IC50 ([2]; HTRF): ≤ 50 nM

O=C(Nc1cnn(-c2ccnc(Nc3ccccc3Cl)n2)c1)N[C@@H](CO)c1ccccc1 [Compound 4, (R)-1-(1-(2-((2-chlorophenyl)amino)pyrimidin-4-yl)-1H-pyrazol-4-yl)-3-(2-hydroxy-1-phenylethyl)urea]
IC50 ([1]; HTRF): > 2500 nM
IC50 ([2]; HTRF): > 2500 nM

Cc1cnc(NC2CCOCC2)nc1-n1cnc(C(=O)NCc2ccc(Cl)cc2CO)c1 [Example 343, N-(4-chloro-2-hydroxymethyl-benzyl)-1-(5-methyl-2-((tetrahydro-2H-pyran-4-yl)amino)-pyrimidin-4-yl)-1H-imidazole-4-carboxamide]
IC50 ([1]; HTRF biochemical assay): < 50 nM
IC50 ([2]; HTRF biochemical assay): ≤ 50 nM

Cc1cnc(NC2CCOCC2)nc1-n1cnc(C(=O)NC(CN)c2ccc(Cl)s2)c1 (stereo not shown) [Example 274, N-(2-amino-1-(5-chlorothiophen-2-yl)ethyl)-1-(5-methyl-2-((tetrahydro-2H-pyran-4-yl)amino)-pyrimidin-4-yl)-1H-imidazole-4-carboxamide]
IC50 ([1]; HTRF): < 50 nM
IC50 ([2]; HTRF): ≤ 50 nM
